Experimental findings from patent publication US20060127310A1, “Amplification of biotin-mediated targeting” (priority 2002, published 2006) are described below.

One assay has as its system P815 tumour cells. The conditions noted are these: mice bearing P815 tumour; 5 mg/kg Rhodamine conjugated to HPMA intraperitoneally; six hours after injection; FIG. 1. The procedure:
For tumour accumulation studies, various strains of mice bearing a variety of tumours were injected intraperitoneally with 5 mg/kg Rhodamine conjugated to the HPMA polymers. Six hours after injection, the mice were sacrificed, their tumours removed and cryo-embedded before cryostatic sectioning. The level of accumulation of the Rhodamine-HPMA was determined by fluorescent microscopy using a Zeiss microscope equiped with Axioplan software. […] Blue staining is BisBenzamide staining of cell nuclei.

The test system of a further assay is 4T1. Description: Uptake of Rhodamine-HPMA polymers into tumour cell lines. In kind it is cell-based. As to conditions: 4T1, Balb/C, Breast; 5 hours at 37° C. The procedure: (§1) Cells from various tumour cell lines were allowed to grow for 2 days on glass slides incubated in appropriate media at 37° C. in 5% CO2. […] Cells were incubated for a further 5 hours at 37° C. in 5% CO2. At this time the media was removed and uptake into the cells was assessed by fluorescent microscopy of internalization of the rhodamine fluorophore. Uptake was determined on a relative scale.

In the next assay the test system is MMT060562. Described as above. In kind it is cell-based. The conditions noted are these: MMT060562, Balb/C, Breast; 5 hours at 37° C. The protocol:
as §1

Another assay deals with M109. The description is as above. In kind it is cell-based. The conditions noted are these: M109, Balb/C, Lung; 5 hours at 37° C. The procedure:
as §1

Another assay deals with P815. The description is as above. In kind it is cell-based. The conditions noted are these: P815, DBA/2, Mastocytoma; 5 hours at 37° C. The procedure: as §1
Another assay concerns L1210. Described as above. In kind it is cell-based. As to conditions: L1210, DBA/2, Leukemia; 5 hours at 37° C. The protocol:
as §1

The subject of a further assay is BW5147. Described as above. The conditions noted are these: BW5147, AKR/J, Lymphoma; 5 hours at 37° C. In kind it is cell-based. The procedure: as §1
The subject of a further assay is B16. The description is as above. In kind it is cell-based. As to conditions: B16, C57/BI, Melanoma; 5 hours at 37° C. The protocol: as §1
Another assay has as its system Colo-26. The assay is described as above. As to conditions: Colo-26, Balb/C, Colon Carcin; 5 hours at 37° C. In kind it is cell-based. The protocol: as §1
The subject of another assay is ID8. The description is as above. As to conditions: ID8, C57/BI, Ovarian; 5 hours at 37° C. In kind it is cell-based. The protocol:
as §1

Another assay relates to RENCA. Described as above. In kind it is cell-based. As to conditions: Balb/C, Renal cell, 5 hours at 37° C. The procedure: as §1
Another assay relates to Ovcar. The assay is described as above. In kind it is cell-based. As to conditions: Ovarian, 5 hours at 37° C. The protocol:
as §1

Another assay deals with JC. The description is as above. In kind it is cell-based. As to conditions: Balb/C, Breast, 5 hours at 37° C. The procedure: as §1
The test system of another assay is HCT-116. The assay is described as above. In kind it is cell-based. As to conditions: HCT-116, Balb/C-Nu, Colon Carcin; 5 hours at 37° C. The protocol: as §1
In another assay the test system is Ov 2008. The description is as above. The conditions noted are these: Ov 2008, Balb/C-Nu, Ovarian; 5 hours at 37° C. In kind it is cell-based. The procedure:
as §1

Another assay relates to L1210FR. The description is as above. In kind it is cell-based. As to conditions: DBA/2, Leukemia, 5 hours at 37° C. The procedure: as §1
The test system of a further assay is LL-2. Described as above. In kind it is cell-based. As to conditions: LL-2, C57/BI, Lung; 5 hours at 37° C. The procedure: as §1
The subject of a further assay is O157. The assay is described as above. In kind it is cell-based. The arrangement: key: −: Uptake was determined on a relative scale; +/−: Uptake was determined on a relative scale; +: Uptake was determined on a relative scale; ++: Uptake was determined on a relative scale; +++: Uptake was determined on a relative scale. As to conditions: O157, Balb/C, Bcell Lymph; 5 hours at 37° C. The procedure: as §1

For Rhodamine-HPMA polymer, in the assay on P815 tumour cells, the “Level of accumulation / polymer uptake by P815 tumour cells (fluorescent microscopy of cryostat sections)” value was “accumulation”. Further, the “Uptake into the cells (internalization of the rhodamine fluorophore, fluorescent microscopy), relative scale” value (“Uptake into the cells … relative scale” for short) with 4T1 was “−”; in the assay on MMT060562, “−”; in the assay on M109 it was “−”; in the assay on P815, “−”; with L1210, “−”; in the assay on BW5147 it was “+/−”. Further, the “Uptake into the cells … relative scale” value in the assay with B16, in the assay with Colo-26, with ID8, with RENCA, with Ovcar and with JC was “−” each time. Besides, the “Uptake into the cells … relative scale” value is “+” with HCT-116; “−” with Ov 2008; “−” in the assay on L1210FR; “−” with LL-2; “+/−” with O157.
